# Assay results taken from paper PMC12915096, “AI‐Driven Acceleration of Fluorescence Probe Discovery” (Advanced Science, 2025).
# Target: T1, tau aggregates in cleared P301S mice brain (Homo sapiens, UniProt P10636, P618S)
# T1 construct: from tissue; host or cells: brain of 9-month-old P301S (PS19) tau transgenic mice, in vivo and ex vivo
# Test: 3D transparent brain imaging after tissue clearing
# Format: in vivo
# Settings: transgenic mouse brains, ex vivo
# Experimental: After two‐photon imaging, mice were anesthetized by isoflurane and were transcardially perfused with ice‐cold 1×PBS followed with ice‐cold 4% PFA solution. Brain was incubated in 4% PFA at 4°C with shaking overnight. The samples were then washed with 1×PBS for at least 2 h twice at room temperature. The clearing of the fixed samples was conducted with Nuohai enhanced tissue clearing kit (NH‐CR‐230701, Nuohai Life Science (Shanghai) Co., Ltd). Briefly, samples were immersed individually in 20 mL of solution A for 7–8 days (refreshing the solution every two days) with gentle shaking at 37°C. The sample was washed in 1×PBS for 6 h with gentle shaking at room temperature and the PBS refreshed every 2 h. Finally, the samples were RI matched for 3D imaging. 3D fluorescence imaging of the cleared tissues was conducted with a Nuohai LS 18 tiling light sheet microscope (Nuohai Life Science Co., Ltd). A 4‐tile tiling light sheet was used to illuminate the samples, and a 1 × 0.25 NA objective (Olympus MVPLAPO) was used to collect the fluorescence. The magnification of the microscope was set at 4×, and the spatial resolution was roughly 3.3 × 3.3 × 7 µm^3 at the selected imaging conditions. The collected images were processed with the LS 18 image combine software (Nuohai Life Science Co., Ltd) and rendered using Amira (Thermo Fisher Scientific, USA). […]
# T1 sequence (P10636 1-412 isoform P10636-7 P272S): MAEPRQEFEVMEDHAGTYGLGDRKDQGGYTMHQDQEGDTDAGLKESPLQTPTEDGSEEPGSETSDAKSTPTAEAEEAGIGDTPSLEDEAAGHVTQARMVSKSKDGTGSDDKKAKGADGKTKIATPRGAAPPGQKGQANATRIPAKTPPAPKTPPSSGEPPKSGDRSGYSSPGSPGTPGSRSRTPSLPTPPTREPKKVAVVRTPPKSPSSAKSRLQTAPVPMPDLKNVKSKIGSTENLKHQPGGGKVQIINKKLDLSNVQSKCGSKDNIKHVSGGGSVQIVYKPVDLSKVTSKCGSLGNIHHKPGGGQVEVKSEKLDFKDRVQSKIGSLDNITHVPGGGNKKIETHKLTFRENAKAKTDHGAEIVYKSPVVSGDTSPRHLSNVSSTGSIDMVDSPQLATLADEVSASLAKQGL
structure (smiles),measurement,value
O=C(O)c1cc(/C=C/c2ccc(/C=C/c3ccc(O)c(C(=O)O)c3)c(F)c2)ccc1O [FSB],Tau labeling signal after 8 days of tissue clearing,nearly abolished
